23 compounds from patent US9834564B2, “Substituted quinolines as PDE-10 inhibitors” (priority 2010, dated 2017) can be followed below.

The IC50 is the concentration that inhibits the measured activity by half.

Test [1] has as its target HEK293 cells over-expressing PDE-10A (Homo sapiens (Human), UniProt Q9Y233). Briefly: whole cell PDE-10 assay, intracellular cGMP in HEK293 cells over-expressing PDE-10A. Format: cell-based. The conditions noted are these: concentration elevating intracellular cyclic nucleotide 300% above baseline; HEK293 over-expressing PDE-10A, 30 min compound, 200 μM sodium nitroprusside 2 min.

Test [2] has as its target recombinant human PDE-10 enzyme (PDE-10A) (Homo sapiens (Human), UniProt Q9Y233). The experiment in a line: IMAP PDE Fluorescence Polarization assay, human PDE-10 inhibition (enzyme assay). Format: biochemical. The conditions noted are these: recombinant human PDE-10, fluorescein-labeled cAMP/cGMP substrate, 40 min at 37° C. (In general: In fluorescence polarisation assays a small probe gives low polarisation when free and higher when bound to something large.)

Sequence of HEK293 cells over-expressing PDE-10A (Q9Y233 whole entry): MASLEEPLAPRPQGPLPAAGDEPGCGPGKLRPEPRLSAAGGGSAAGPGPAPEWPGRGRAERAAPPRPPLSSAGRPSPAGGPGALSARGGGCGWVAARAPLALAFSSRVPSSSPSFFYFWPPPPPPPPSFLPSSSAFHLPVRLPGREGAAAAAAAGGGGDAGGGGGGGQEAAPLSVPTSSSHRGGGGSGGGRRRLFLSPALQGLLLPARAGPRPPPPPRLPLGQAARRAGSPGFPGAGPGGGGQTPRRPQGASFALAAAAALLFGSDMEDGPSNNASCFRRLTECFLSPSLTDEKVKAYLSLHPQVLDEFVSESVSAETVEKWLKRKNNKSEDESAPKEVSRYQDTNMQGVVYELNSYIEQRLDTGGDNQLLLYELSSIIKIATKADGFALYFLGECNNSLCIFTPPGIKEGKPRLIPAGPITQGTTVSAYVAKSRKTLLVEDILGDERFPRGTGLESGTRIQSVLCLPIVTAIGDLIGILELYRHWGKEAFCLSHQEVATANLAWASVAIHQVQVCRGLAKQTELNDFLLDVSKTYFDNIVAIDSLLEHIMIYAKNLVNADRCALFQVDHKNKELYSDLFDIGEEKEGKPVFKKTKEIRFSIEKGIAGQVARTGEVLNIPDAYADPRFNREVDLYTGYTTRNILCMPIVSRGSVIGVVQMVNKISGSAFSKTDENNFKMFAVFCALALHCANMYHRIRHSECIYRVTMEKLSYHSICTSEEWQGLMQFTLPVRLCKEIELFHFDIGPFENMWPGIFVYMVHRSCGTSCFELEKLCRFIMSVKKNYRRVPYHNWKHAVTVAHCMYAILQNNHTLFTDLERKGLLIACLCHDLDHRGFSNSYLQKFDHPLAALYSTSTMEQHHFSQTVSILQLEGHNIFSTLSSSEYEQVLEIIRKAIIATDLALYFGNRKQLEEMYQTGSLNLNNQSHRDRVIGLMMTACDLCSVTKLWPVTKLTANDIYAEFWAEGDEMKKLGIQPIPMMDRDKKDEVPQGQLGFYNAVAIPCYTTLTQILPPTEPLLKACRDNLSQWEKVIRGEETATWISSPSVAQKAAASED
Sequence of recombinant human PDE-10 enzyme (PDE-10A) (Q9Y233 whole entry): as above

As for `Fc1cccc(-c2c[nH]c(CCc3cnc4ccccc4n3)n2)c1` [Compound 76], the “PDE-10 EC300 (μM)” value in test [1] is given as “++++ (IC50 or EC300<0.5 μM ++++)”. Besides, in test [2], the IC50 was less than 500 nM.
In the same order, the values of `Fc1cccc(-c2c[nH]c(CCc3cnc4ccccc4n3)n2)c1F` [Compound 77] are “++++ (IC50 or EC300<0.5 μM ++++)” and less than 500 nM.
In the case of `c1ccc(-n2ccc(CCc3cnc4ccccc4n3)n2)cc1` [Compound 79], in test [1], the “PDE-10 EC300 (μM)” value is “++ (1<IC50 or EC300<10 μM ++)”. Also, the IC50 in test [2] lay within 500 to 1000 nM.
The corresponding values for `O=c1oc(CCc2nc(-c3ccccc3)c[nH]2)nc2ccccc12` [Compound 82] are “+ (IC50 or EC300>10 μM +)” and 1000 to 10000 nM.
On to `c1ccc2nc(CCc3nc4c(ccc5ncccc54)[nH]3)cnc2c1` [Compound 102], for which, in test [1], the “PDE-10 EC300 (μM)” value is recorded as “++ (1<IC50 or EC300<10 μM ++)”. In test [2], the half-maximal inhibitory concentration (IC50) was less than 500 nM.
In the same order, the values of `c1ccc2c(c1)ccc1[nH]c(CCc3cnc4ccccc4n3)nc12` [Compound 103] are “+ (IC50 or EC300>10 μM +)” and less than 500 nM.
Take `O=c1[nH]c(CCc2ncc(-c3ccccc3)o2)nc2ccccc12` [Compound 110]: the “PDE-10 EC300 (μM)” value in test [1] was “+ (IC50 or EC300>10 μM +)”. Also, in test [2], the concentration for half-maximal inhibition (IC50) was more than 10000 nM.
`c1ccc(-c2c[nH]c(COc3cnc4ccccc4n3)n2)cc1` [Compound 120]: the “PDE-10 EC300 (μM)” value in test [1] is recorded as “++ (1<IC50 or EC300<10 μM ++)”. Moreover, the half-inhibitory concentration (IC50) in test [2] is less than 500 nM.
The corresponding values for `c1ccc(-c2c[nH]c(OCc3cnc4ccccc4n3)n2)cc1` [Compound 123] are “++ (1<IC50 or EC300<10 μM ++)” and less than 500 nM.
Consider `c1ccc(-c2c[nH]c(Sc3cnc4ccccc4n3)n2)cc1` [Compound 124], for which the “PDE-10 EC300 (μM)” value in test [1] is “++ (1<IC50 or EC300<10 μM ++)”. The IC50 in test [2] was less than 500 nM.
The corresponding values for `Cc1ncc(C)n2nc(CCc3ccc4ccccc4n3)nc12` [Compound 125, 2-(2-(5,8-Dimethyl-[1,2,4]triazolo[1,5-a]pyrazin-2-yl)ethyl)quinoline] are “++++ (IC50 or EC300<0.5 μM ++++)” and less than 500 nM.
Take `Cc1ncc(C)n2nc(CCc3cnc4ccccc4n3)nc12` [Compound 134]: the “PDE-10 EC300 (μM)” value in test [1] is reported as “++ (1<IC50 or EC300<10 μM ++)”. In test [2], the half-maximal inhibitory concentration (IC50) is less than 500 nM.
The corresponding values for `Cc1ncc(C)n2nc(CCc3ccc4ccc5ncccc5c4n3)nc12` [Compound 142] are “++++ (IC50 or EC300<0.5 μM ++++)” and less than 500 nM.
Turning to `COc1nc2ccccc2nc1CCc1nc2c3cccnc3ccc2n1C` [Compound 144], in test [1], the “PDE-10 EC300 (μM)” value is recorded as “++ (1<IC50 or EC300<10 μM ++)”. In addition, the IC50 in test [2] is less than 500 nM.
In the same order, the values of `c1ccc2nc(CCc3nc4ccc5ncccc5n4n3)cnc2c1` [Compound 145] are “+ (IC50 or EC300>10 μM +)” and 500 to 1000 nM.
Take `c1ccc2nc(CCc3nc4ccc5ncccc5n4n3)ccc2c1` [Compound 146]: the “PDE-10 EC300 (μM)” value in test [1] is recorded as “++++ (IC50 or EC300<0.5 μM ++++)”. Besides, the IC50 in test [2] was less than 500 nM.
The corresponding values for `Cn1c(CCc2ccc3ccccc3n2)nc2c3ncccc3ccc21` [Compound 155] are “+++ (0.5<IC50 or EC300<1 μM +++)” and less than 500 nM.
The corresponding values for `Cc1cc(C)nc(CCc2nc3c4cccnc4ccc3n2C)n1` [Compound 193] are “++++ (IC50 or EC300<0.5 μM ++++)” and less than 500 nM.
In the same order, the values of `Cc1ccc2nc(CCc3nc4c5cccnc5ccn4c3C)ccc2n1` [Compound 202] are “++++ (IC50 or EC300<0.5 μM ++++)” and less than 500 nM.
For `Cn1c(CCc2ccc3ncccc3n2)nc2c3cccnc3ccc21` [Compound 204], the “PDE-10 EC300 (μM)” value in test [1] was “++++ (IC50 or EC300<0.5 μM ++++)”. Further, the IC50 in test [2] was less than 500 nM.
In the same order, the values of `Cc1nc(CCc2nc3c4cccnc4ccc3n2C)nc(C)c1Cl` [Compound 208] are “++++ (IC50 or EC300<0.5 μM ++++)” and less than 500 nM.
In the same order, the values of `Cc1nc(CCc2nc3c4cccnc4ccc3n2C)nc2c1CCC2` [Compound 210] are “++++ (IC50 or EC300<0.5 μM ++++)” and less than 500 nM.
In the same order, the values of `Cn1c(CCc2cnc3ccccc3n2)nc2c3c(ccc21)OCCO3` [Compound 211] are “++++ (IC50 or EC300<0.5 μM ++++)” and less than 500 nM.
